Source: patent US7985738B2, “Cytosine nucleoside analogs and isoflavones and uses thereof” (Institut National de la Recherche Scientifique, priority 2007, dated 2011)
Several values for one entry are separate records, joined by “and”; a condition that tells them apart may be missing. Equal entries are not always repeated.

What was measured:
[1] = test system: HL-60 myeloid human leukemic cells; experiment: Inhibition/loss of clonogenicity in soft agar, HL-60; assay type: cell-based; details: 48 h
Procedure: (§1) Cell lines and drug exposure. Human myeloid (HL-60) and lymphoid (MOLT-3) leukemic cells were obtained from ATCC (ATCC #: CRL-1552; Manassas, Va. USA). MBA-MD-231 and Dld-1 cells were also used. Human cell lines were cultured in RPMI-1640 medium (Invitrogen, Burlington, Ontario) supplemented with 10% heat-inactivated fetal bovine serum (Wisent, St-Bruno, Quebec). The doubling times of HL-60 and MOLT-3 were 16-18 h and 23-24 h, respectively, whereas for both MBA-MD-231 and Dld-1 cells it was 24-27 h. The murine lymphoid leukemic cell line L1210 (ATCC #: CCL-219; Brandes et al., (1966). J Natl Cancer Inst. 37(4): 467-85) was cultured in RPMI-1640 with 5% heat-inactivated fetal calf serum and with 6 μM of 2-mercaptoethanol. The doubling time of the L1210 cells was about 10 h. From this cell line, a clone fully resistant to […], identified herein as L1210/ARAC, was generated after exposure of increasing doses of cytosine arabinoside for a period of 3 months (Schabel et al., (1984). Cancer Treat. Rep 67: 905-922). The doubling time of the L1210/ARAC cells was about 12 h. Human lung adenocarcinoma cells H2087, and Calu-6 non-small cell lung cancer cells, were obtained from ATCC (ATCC #: CRL-5922; Manassas, Va. USA) and cultured in DMEM and RPMI without HEPES, respectively. The cells were trypsinized with 0.25% Trypsin-EDTA (Invitrogen, Grand Island, N.Y.). The doubling time of the H2087 cells was about 35 h. Cell lines were incubated at 37° C. in 5% CO2 atmosphere.
(§2) Genistein (LC Laboratories, Woburn, Mass.) was dissolved in DMSO (Sigma, Oakville, Ontario) to prepare stock solutions of 2 and 20 mM and kept frozen at −20° C. until use. Decitabine (DAC, Dacogen™, 5-aza-2′-deoxycytidine) at 1000 μg/ml in PBS was kept at −80° C. […]
(§3) Inhibition of clonogenicity. […] After 7 d of incubation for murine cell lines or 15 d for human cell lines, the number of colonies (>50 cells) was counted. […] The experiments were repeated three times and expressed as mean±S.E.M.
(§4) Statistical analyses. […] The p value was evaluated accordingly to Tukey's method (Hastings, C et al. (1947). Ann. Math. Statist. 18,413-426). […]

[2] = test system: MOLT-3 lymphoid human leukemic cells; experiment: Inhibition/loss of clonogenicity in soft agar, MOLT-3; assay type: cell-based; details: 48 h
Procedure: as §1, §2, §3, §4

[3] = test system: L1210 murine lymphoid leukemic cells; experiment: Inhibition/loss of clonogenicity in soft agar, L1210; assay type: cell-based
Procedure: as §1
(§5) Genistein (LC Laboratories, Woburn, Mass.) was dissolved in DMSO (Sigma, Oakville, Ontario) to prepare stock solutions of 2 and 20 mM and kept frozen at −20° C. until use. Decitabine (DAC, Dacogen™, 5-aza-2′-deoxycytidine) at 1000 μg/ml in PBS was kept at −80° C. Before each experiment, Decitabine was diluted at 1 μg/ml (for murine leukemic cell lines), 10 μg/ml (for human leukemic cells), or 100 μg/ml (for lung carcinoma cells) with sterile PBS and kept on ice until use.
Inhibition of clonogenicity. It is known that cancer cells form clones in soft agar (clonogenicity). Irreversible eradication of the clonogenicity of cancer stem cells is one of the objectives of chemotherapy since it is related to cell proliferation potential. Human and murine leukemic cell lines in log phase at 5×10^4 cells/ml were placed in tissue culture flasks and exposed to the drug combinations for 48 and 24 h respectively. […] After 7 d of incubation for murine cell lines or 15 d for human cell lines, the number of colonies (>50 cells) was counted. […] The experiments were repeated three times and expressed as mean±S.E.M.
as §4

[4] = test system: H2087 lung carcinoma cells; experiment: Colony formation assay, H2087; assay type: cell-based, human; details: decitabine 220 nM and/or genistein 5 μM, 24 h, mean ± S.D., relative to untreated cells
Procedure: as §1, §5
For human lung carcinoma H2087 cells, 100 cells were placed in wells of a 6-well dish (day 0); for Calu-6, MBA-MD-231 and Dld-1, 200 cells were seeded. On day 1, Decitabine (50 ng/ml) and genistein (5 μM) were added concomitantly to the cells for 24 h. Drugs were then removed and wells were rinsed with 1 ml of medium. Fresh medium (2 ml) was added and after 16-19 d colonies were stained with 0.5% methylene blue in 50% methanol and counted. The inhibition/loss of clonogenicity (%) was expressed relative to control (untreated) cells. The experiments were repeated three times and expressed as mean±S.D or mean±SEM for Calu-6, MBA-MD-231 and Dld-1 cells.
as §4

[5] = test system: human lung carcinoma cell line (CALU-6); experiment: Colony formation assay, CALU-6; assay type: cell-based
Procedure: as §1, with “atmosphere. […]” for “atmosphere.”
For human lung carcinoma H2087 cells, 100 cells were placed in wells of a 6-well dish (day 0); for Calu-6, MBA-MD-231 and Dld-1, 200 cells were seeded. […] Fresh medium (2 ml) was added and after 16-19 d colonies were stained with 0.5% methylene blue in 50% methanol and counted. […] The experiments were repeated three times and expressed as mean±S.D or mean±SEM for Calu-6, MBA-MD-231 and Dld-1 cells.
as §4

L1210 leukemic cells = experiment: Survival of CD2F1 mice bearing L1210 leukemia; assay type: in vivo; details: i.v. 10^4 L1210 cells; for Increase in life span (%): 0.5% genistein in diet and/or DAC 2 mg/kg 8 h i.v. infusion on day 1
Procedure: In vivo experiments. Male CD2F1 mice (24-28 g) were purchased from Taconic Biotechnology (Germantown, N.Y., USA). Mice were acclimatized to housing conditions at least 2 weeks before experiments. They received food and water ad libitum. […] Seven days later, the ascetic fluid was obtained from the mice and a cell count of the leukemic cells was performed with a haemocytometer prior to subsequent transplantation. Mice were injected intravenously (i.v.) with 0.1 ml of L1210 or L1210/ARAC (10^4) cells. […] Mice were acclimated to the genistein-enriched regimen over a 10-days period before injection of leukemic cells. A Harvard apparatus compact infusion pump was used at a flow rate of 0.22 ml/h via 25-gauge needle into the lateral tail vein. DAC was given at 2 mg/kg for 8 h. Decitabine was prepared fresh before each experiment, dissolved in ½ PBS and sterilized by 0.2 μm filtration. Mice were placed in a restrainer cage during treatment with access to food. Toxicity was evaluated by body weight loss. Mice fed with genistein-enriched diet kept the same regimen during all the experiment. The survival time of each group of mice was monitored and the increased in life span (ILS) calculated.
Statistical analyses. In order to evaluate whether the inter-group variations were random, one-way ANOVA testing was performed. […] A p value≦0.05 was taken for statistical significance.

[6] = test system: L1210/ARAC leukemic cells; experiment: Survival of CD2F1 mice bearing L1210/ARAC leukemia; assay type: in vivo; details: i.v. 10^4 L1210/ARAC cells, 0.5% genistein in diet and/or DAC 2 mg/kg 8 h i.v. infusion on day 1
Procedure: In vivo experiments. Male CD2F1 mice (24-28 g) were purchased from Taconic Biotechnology (Germantown, N.Y., USA). Mice were acclimatized to housing conditions at least 2 weeks before experiments. They received food and water ad libitum. For transplantation of leukemia cells in mice, intraperitonal (i.p.) injections of 10^4 L1210 or L1210/ARAC cells in RPMI-1640 medium were performed weekly into the CD2F1 mice. Seven days later, the ascetic fluid was obtained from the mice and a cell count of the leukemic cells was performed with a haemocytometer prior to subsequent transplantation. Mice were injected intravenously (i.v.) with 0.1 ml of L1210 or L1210/ARAC (10^4) cells. Control groups that received the control diet 2016 (Teklad Global 16% Protein Rodent Diet™; Harlan Teklad, Madison Wis.) were either treated or not with DAC. To test the effect of genistein in the diet, mice were fed with 2016 diet supplemented with 0.5% genistein (Harlan Teklad) and treated with either DAC or the vehicle alone. Mice were acclimated to the genistein-enriched regimen over a 10-days period before injection of leukemic cells. A Harvard apparatus compact infusion pump was used at a flow rate of 0.22 ml/h via 25-gauge needle into the lateral tail vein. DAC was given at 2 mg/kg for 8 h. Decitabine was prepared fresh before each experiment, dissolved in ½ PBS and sterilized by 0.2 μm filtration. Mice were placed in a restrainer cage during treatment with access to food. Toxicity was evaluated by body weight loss. Mice fed with genistein-enriched diet kept the same regimen during all the experiment. The survival time of each group of mice was monitored and the increased in life span (ILS) calculated.
Statistical analyses. In order to evaluate whether the inter-group variations were random, one-way ANOVA testing was performed. The p value was evaluated accordingly to Tukey's method (Hastings, C et al. (1947). Ann. Math. Statist. 18,413-426). A p value≦0.05 was taken for statistical significance. Valeriote and Lin's method (Valeriote, F and Lin, H. S. 1975. Cancer Chemother. Rep. 59(5): 895-900) was used to determine if the interaction observed between drugs in the clonogenic assays was additive, synergistic or antagonistic.

[7] = test system: L1210/ARAC cells (DAC-resistant clone of L1210); experiment: Inhibition/loss of clonogenicity in soft agar, L1210/ARAC; assay type: cell-based, murine; details: alone or with DAC 4.4 nM
Procedure: as §1, with “The doubling time of the L1210/ARAC cells was about 12 h. Human lung adenocarcinoma cells H2087, and Calu-6 non-small cell lung cancer cells, were obtained from ATCC (ATCC #: CRL-5922; Manassas, Va. USA) and cultured in DMEM and RPMI without HEPES, respectively. The cells were trypsinized with 0.25% Trypsin-EDTA (Invitrogen, Grand Island, N.Y.). The doubling time of the H2087 cells was about 35 h. Cell lines were incubated at 37° C. in 5% CO2 atmosphere.” left out
as §3, §4

[8] = DAC 44 nM alone, relative to control cells
[9] = genistein 0.1 μM, alone or with DAC 44 nM
[10] = genistein 1 μM, alone or with DAC 44 nM

## Nc1ncn([C@H]2C[C@H](O)[C@@H](CO)O2)c(=O)n1 [DAC, 4-Amino-1-(2-deoxy-β-D-ribofuranosyl)-1,3,5-triazin-2(1H)-one, reference compound]
[1]; [8]
  loss of clonogenicity: 20% and 17%
[2]; [8]
  loss of clonogenicity: 40% and 37%
[3]; DAC 4.4 nM alone, relative to control cells
  loss of clonogenicity: 28%
[3]; DAC 4.4 nM alone, relative to control cells, listed as Decitabine
  loss of clonogenicity: about 30%
[4]
  Loss of clonogenicity (%): 60%
[4]; listed as Decitabine
  Loss of clonogenicity (%): 60 ± 4.1%
[5]; decitabine 10 ng/ml alone
  Loss of clonogenicity (%): 36.6%
L1210 leukemic cells
  Increase in life span (%): 66.8%
[6]
  Increase in life span (%): −2.3%
  Survival time: 9.42 ± 0.50 days

## O=c1c(-c2ccc(O)cc2)coc2cc(O)cc(O)c12 [genistein]
[1]; [9]
  loss of clonogenicity: 1%
[1]; [10]
  loss of clonogenicity: 15%
[2]; [9]
  loss of clonogenicity: 1%
[2]; [10]
  loss of clonogenicity: 12%
[3]; genistein 0.1 μM, alone or with DAC 4.4 nM
  loss of clonogenicity: 2%
[3]; genistein 1 μM, alone or with DAC 4.4 nM
  loss of clonogenicity: 13%
[7]; genistein 0.1 μM
  loss of clonogenicity: 2%
[7]; genistein 1 μM
  loss of clonogenicity: 11%
[4]
  Loss of clonogenicity (%): 3.8%
[4]; listed as Genistein
  Loss of clonogenicity (%): 3.8 ± 9.4%
[5]; genistein 0.1 μM, alone or with decitabine 10 ng/ml
  Loss of clonogenicity (%): 4.9%
[5]; genistein 10 μM, alone or with decitabine 10 ng/ml
  Loss of clonogenicity (%): 31.7%
L1210 leukemic cells
  Increase in life span (%): 7.0. (p < 0.001) %
L1210 leukemic cells; 0.5% genistein-enriched diet
  survival time after injection of leukemia: 7.85 ± 0.10 days
[6]
  Increase in life span (%): 7.88%
  Survival time: 10.39 ± 1.01 days
